The record followed here is ChEMBL document CHEMBL4706518, “Discovery of MGS0274, an ester prodrug of a metabotropic glutamate receptor 2/3 agonist with improved oral bioavailability” (Eur J Med Chem, 2020).

The target in data set [1] is Beta-2 adrenergic receptor (Homo sapiens) (UniProt P07550). Nature of the data set: Binding affinity to beta2 adrenoreceptor (unknown origin) 10 umol/L by radioligand binding assay. The note with it: dose 10.0 µmol/L.
Data set [2] concerns the target Metabotropic glutamate receptor 2 (Homo sapiens, UniProt Q14416). Nature of the data set: Agonist activity at human mGlu2 receptor expressed in CHO cell membranes by GTPgammaS binding assay. It counts as functional, Cell membrane. In general terms: GTPγS is a poorly hydrolysed GTP analogue; its binding reports G protein activation.
The target in data set [3] is Cannabinoid receptor 2 (Homo sapiens) (UniProt P34972). Put plainly: Binding affinity to CB2 (unknown origin) 10 umol/L by radioligand binding assay. To be noted: dose 10.0 µmol/L.
Chain of Cannabinoid receptor 2 (Homo sapiens) (P34972 whole entry): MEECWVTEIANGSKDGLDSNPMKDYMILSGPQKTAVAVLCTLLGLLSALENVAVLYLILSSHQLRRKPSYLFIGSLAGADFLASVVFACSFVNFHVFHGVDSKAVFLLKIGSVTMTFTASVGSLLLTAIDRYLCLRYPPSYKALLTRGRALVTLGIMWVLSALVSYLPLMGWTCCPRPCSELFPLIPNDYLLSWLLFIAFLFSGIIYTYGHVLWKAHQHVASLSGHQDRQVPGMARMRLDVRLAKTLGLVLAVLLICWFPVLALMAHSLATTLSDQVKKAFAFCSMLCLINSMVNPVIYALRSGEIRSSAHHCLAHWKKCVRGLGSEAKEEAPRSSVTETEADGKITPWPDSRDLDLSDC
For data set [4], the species on record is Homo sapiens. Nature of the data set: Binding affinity to GABAA chloride channel central (unknown origin) 10 umol/L by radioligand binding assay. The note with it: dose 10.0 µmol/L.
Data set [5] addresses Muscarinic acetylcholine receptor M2 (Homo sapiens) (UniProt P08172). Put plainly: Binding affinity to muscarinic M2 (unknown origin) 10 umol/L by radioligand binding assay. To be noted: dose 10.0 µmol/L.
The target of data set [6] is Neuropeptide Y receptor type 2 (Homo sapiens) (UniProt P49146). Put plainly: Binding affinity to Y2 receptor (unknown origin) 10 umol/L by radioligand binding assay. The note with it: dose 10.0 µmol/L.
Chain of Neuropeptide Y receptor type 2 (Homo sapiens) (P49146 whole entry): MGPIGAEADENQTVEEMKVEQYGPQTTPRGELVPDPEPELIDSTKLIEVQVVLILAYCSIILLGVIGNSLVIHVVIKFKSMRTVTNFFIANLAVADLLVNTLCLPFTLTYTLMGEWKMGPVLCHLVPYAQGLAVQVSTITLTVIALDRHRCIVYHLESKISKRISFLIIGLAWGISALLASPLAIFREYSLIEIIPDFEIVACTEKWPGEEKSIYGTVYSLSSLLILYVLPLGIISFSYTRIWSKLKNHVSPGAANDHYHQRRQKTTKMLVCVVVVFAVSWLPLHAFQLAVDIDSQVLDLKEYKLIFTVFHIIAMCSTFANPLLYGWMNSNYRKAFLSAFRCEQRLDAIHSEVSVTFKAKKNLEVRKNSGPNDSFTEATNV
For data set [7], the species on record is Homo sapiens. Nature of the data set: Binding affinity to nACh receptor (unknown origin) 10 umol/L by radioligand binding assay. To be noted: dose 10.0 µmol/L.
A short description of data set [8]: Oral bioavailability in monkey at 4.92 umol/kg measured up to 24 hrs by LC-MS/MS analysis. In kind it is ADME, organism-based, Macaca mulatta. To be noted: rhesus monkey, in vivo, at 4.92 µmol/kg.
Data set [9] deals with Metabotropic glutamate receptor 3 (Rattus norvegicus, UniProt P31422). Put plainly: Agonist activity at rat mGlu3 receptor expressed in CHO cell membranes by GTPgammaS binding assay. In kind it is functional, Cell membrane.
Data set [10] has as its target Metabotropic glutamate receptor 3 (Rattus norvegicus) (UniProt P31422). Put plainly: Agonist activity at rat mGlu3 receptor expressed in CHO cell membranes by GTPgammaS binding assay relative to control. In kind it is functional. To be noted: Cell membrane, filed as agonist.
Data set [11] concerns the target Metabotropic glutamate receptor 3 (Homo sapiens, UniProt Q14832). Nature of the data set: Antagonist activity at human mGlu3 receptor expressed in CHO cell membranes in presence of glutamate by GTPgammaS binding assay. In kind it is functional, Cell membrane.
For data set [12], the target named is T1, Metabotropic glutamate receptor 4 (Homo sapiens, UniProt Q14833). Put plainly: Agonist activity at human mGlu4 receptor expressed in CHO cell membranes by GTPgammaS binding assay. In kind it is functional, Cell membrane.
T1 sequence (Q14833 whole entry): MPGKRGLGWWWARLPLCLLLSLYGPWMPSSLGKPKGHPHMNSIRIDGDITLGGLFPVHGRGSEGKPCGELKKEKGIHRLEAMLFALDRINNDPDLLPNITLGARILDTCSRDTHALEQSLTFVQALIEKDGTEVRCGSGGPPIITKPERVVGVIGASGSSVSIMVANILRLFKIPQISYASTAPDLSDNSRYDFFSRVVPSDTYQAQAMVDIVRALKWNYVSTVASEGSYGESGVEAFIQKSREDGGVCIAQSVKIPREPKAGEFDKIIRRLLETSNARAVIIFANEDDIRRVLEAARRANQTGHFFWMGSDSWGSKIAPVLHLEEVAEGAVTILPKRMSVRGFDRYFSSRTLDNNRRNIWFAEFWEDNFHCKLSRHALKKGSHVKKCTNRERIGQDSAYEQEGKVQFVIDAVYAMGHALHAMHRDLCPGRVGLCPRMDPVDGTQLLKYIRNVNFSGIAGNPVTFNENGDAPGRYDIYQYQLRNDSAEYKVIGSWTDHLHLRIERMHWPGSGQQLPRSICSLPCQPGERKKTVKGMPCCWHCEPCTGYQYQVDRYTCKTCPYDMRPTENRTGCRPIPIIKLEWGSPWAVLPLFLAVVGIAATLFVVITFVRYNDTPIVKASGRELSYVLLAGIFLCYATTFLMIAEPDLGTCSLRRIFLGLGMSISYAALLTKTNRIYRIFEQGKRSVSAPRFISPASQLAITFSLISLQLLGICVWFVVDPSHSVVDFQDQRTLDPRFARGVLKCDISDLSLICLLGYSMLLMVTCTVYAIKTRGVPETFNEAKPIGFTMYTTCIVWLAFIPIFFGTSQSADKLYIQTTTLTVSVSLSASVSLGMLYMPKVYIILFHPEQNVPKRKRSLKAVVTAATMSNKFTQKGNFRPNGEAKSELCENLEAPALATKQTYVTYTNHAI
The target in data set [13] is T2, Metabotropic glutamate receptor 1 (Homo sapiens, UniProt Q13255). Nature of the data set: Agonist activity at human mGlu1 receptor expressed in CHO cell membranes by intracellular Ca2+ assay. In kind it is functional, Cell membrane.
In data set [14] the target is T3, Metabotropic glutamate receptor 6 (Homo sapiens, UniProt O15303). Nature of the data set: Agonist activity at human mGlu6 receptor expressed in HEK293T cell membranes by GTPgammaS binding assay. In kind it is functional, Cell membrane.
T3 sequence (O15303 whole entry): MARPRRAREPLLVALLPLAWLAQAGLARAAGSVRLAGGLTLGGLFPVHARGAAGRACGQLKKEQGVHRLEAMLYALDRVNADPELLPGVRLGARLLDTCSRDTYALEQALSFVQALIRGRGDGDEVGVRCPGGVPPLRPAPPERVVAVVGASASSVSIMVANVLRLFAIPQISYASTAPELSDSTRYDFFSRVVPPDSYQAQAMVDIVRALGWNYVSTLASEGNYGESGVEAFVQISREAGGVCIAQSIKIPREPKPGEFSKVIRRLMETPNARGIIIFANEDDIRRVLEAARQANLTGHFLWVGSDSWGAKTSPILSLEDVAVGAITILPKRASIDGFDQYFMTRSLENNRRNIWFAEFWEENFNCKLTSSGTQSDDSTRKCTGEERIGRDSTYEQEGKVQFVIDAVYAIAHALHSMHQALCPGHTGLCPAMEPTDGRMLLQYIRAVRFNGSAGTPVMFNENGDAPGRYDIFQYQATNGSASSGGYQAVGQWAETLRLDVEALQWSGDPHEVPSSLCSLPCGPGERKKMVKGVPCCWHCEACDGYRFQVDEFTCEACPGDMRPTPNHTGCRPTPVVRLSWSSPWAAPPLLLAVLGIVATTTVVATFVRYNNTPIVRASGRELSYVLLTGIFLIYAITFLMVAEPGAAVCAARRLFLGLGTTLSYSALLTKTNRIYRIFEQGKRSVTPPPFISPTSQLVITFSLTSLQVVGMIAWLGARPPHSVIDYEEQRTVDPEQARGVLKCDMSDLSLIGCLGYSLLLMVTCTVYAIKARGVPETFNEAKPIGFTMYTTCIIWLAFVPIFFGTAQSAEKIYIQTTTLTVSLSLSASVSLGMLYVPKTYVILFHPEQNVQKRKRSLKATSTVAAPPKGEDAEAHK
For data set [15], the target named is T4, Metabotropic glutamate receptor 8 (Homo sapiens, UniProt O00222). Nature of the data set: Agonist activity at human mGlu8 receptor expressed in CHO cell membranes by GTPgammaS binding assay. It counts as functional, Cell membrane.
T4 sequence (O00222 whole entry): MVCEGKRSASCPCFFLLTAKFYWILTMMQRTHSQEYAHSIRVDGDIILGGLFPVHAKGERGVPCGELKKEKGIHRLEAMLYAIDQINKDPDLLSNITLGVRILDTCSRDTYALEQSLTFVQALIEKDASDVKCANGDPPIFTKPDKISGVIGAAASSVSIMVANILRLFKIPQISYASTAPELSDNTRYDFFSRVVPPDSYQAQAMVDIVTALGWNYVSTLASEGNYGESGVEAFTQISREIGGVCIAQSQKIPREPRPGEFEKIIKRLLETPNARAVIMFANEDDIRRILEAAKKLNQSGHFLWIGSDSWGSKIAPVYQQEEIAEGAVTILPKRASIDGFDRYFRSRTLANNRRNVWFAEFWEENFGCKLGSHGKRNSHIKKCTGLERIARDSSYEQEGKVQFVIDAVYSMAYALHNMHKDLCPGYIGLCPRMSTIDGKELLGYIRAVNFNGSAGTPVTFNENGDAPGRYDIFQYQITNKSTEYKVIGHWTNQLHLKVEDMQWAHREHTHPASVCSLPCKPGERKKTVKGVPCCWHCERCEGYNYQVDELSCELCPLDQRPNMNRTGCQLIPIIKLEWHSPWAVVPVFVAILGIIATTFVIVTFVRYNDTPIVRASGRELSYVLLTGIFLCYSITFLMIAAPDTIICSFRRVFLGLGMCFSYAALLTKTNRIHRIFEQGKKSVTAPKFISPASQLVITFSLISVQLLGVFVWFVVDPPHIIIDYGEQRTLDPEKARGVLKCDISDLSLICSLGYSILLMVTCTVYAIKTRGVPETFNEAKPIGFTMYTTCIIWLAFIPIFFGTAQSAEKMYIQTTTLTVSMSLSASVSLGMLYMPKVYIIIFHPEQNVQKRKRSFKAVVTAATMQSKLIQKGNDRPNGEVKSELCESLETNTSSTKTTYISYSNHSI
Data set [16] deals with T2, Metabotropic glutamate receptor 1. Nature of the data set: Antagonist activity at human mGlu1 receptor expressed in CHO cell membranes in presence of glutamate by intracellular Ca2+ assay. In kind it is functional, Cell membrane.
Data set [17] deals with T1, Metabotropic glutamate receptor 4. Put plainly: Antagonist activity at human mGlu4 receptor expressed in CHO cell membranes in presence of glutamate by GTPgammaS binding assay. It counts as functional, Cell membrane.
Data set [18] has as its target T3, Metabotropic glutamate receptor 6. Put plainly: Antagonist activity at human mGlu6 receptor expressed in HEK293T cell membranes in presence of glutamate by GTPgammaS binding assay. In kind it is functional, Cell membrane.
The target in data set [19] is T4, Metabotropic glutamate receptor 8. Nature of the data set: Antagonist activity at human mGlu8 receptor expressed in CHO cell membranes in presence of glutamate by GTPgammaS binding assay. It counts as functional, Cell membrane.

pEC50, pIC50: −log10 of the molar value. The source made the active and inactive calls. No cut-off for these calls is given here.

Chain of Muscarinic acetylcholine receptor M2 (Homo sapiens) (P08172 whole entry): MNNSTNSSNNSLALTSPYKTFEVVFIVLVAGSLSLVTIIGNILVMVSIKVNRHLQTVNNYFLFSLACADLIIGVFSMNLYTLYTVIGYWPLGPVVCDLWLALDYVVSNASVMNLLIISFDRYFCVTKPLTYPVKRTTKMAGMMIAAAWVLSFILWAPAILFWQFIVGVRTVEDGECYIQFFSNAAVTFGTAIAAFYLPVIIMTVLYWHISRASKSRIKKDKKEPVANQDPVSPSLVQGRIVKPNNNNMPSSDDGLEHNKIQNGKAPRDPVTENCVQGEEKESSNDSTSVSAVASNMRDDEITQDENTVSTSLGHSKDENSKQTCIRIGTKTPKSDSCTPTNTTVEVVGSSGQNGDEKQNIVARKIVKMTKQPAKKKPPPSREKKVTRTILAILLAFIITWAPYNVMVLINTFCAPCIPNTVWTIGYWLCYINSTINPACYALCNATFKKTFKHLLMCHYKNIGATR
Chain of Beta-2 adrenergic receptor (Homo sapiens) (P07550 whole entry, looked up): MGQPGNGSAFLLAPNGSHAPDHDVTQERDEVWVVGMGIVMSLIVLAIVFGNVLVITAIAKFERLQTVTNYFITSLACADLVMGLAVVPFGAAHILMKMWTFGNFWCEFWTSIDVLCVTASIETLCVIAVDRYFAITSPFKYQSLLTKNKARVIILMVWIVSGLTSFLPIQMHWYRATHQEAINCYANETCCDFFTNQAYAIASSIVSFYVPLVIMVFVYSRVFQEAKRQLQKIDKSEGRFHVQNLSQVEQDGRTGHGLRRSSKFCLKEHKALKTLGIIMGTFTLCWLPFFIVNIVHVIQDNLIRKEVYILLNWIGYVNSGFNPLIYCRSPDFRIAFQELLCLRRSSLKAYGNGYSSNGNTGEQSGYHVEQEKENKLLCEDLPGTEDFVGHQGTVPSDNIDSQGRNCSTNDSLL

Broadly, the pEC50 is the EC50 on a negative log10 scale, so that one unit is a factor of ten. `CC(C)[C@@H]1CC[C@@H](C)C[C@H]1OC(=O)O[C@@H](C)OC(=O)[C@H]1[C@@H]2C[C@H](F)[C@@](N)(C(=O)O)[C@@H]21`: the result in data set [1], in data set [3], in [4], in data set [5], in data set [6] and in data set [7] was inactive. This compound had a pEC50 in [2] of less than 4.52.
In general, bioavailability refers to the share of a dose that reaches the circulation, judged against a reference dose that is usually intravenous. Usually Emax stands for the maximal effect, on the per cent scale that the assay sets. The term pIC50 denotes the IC50 on a negative log10 scale, so that one unit is a factor of ten. Take `N[C@]1(C(=O)O)[C@H]2[C@@H](C[C@@H]1F)[C@@H]2C(=O)O`: the outcome in data set [1], in [3], in data set [4], in data set [5], in [6] and in data set [7] was inactive. Further, the bioavailability in [8] was 4%. The pEC50 is 7.01 in data set [9]; less than 4.52 in [12]; less than 4.52 in data set [13]; less than 4.52 in data set [14]; less than 4.52 in data set [15]. In [10], this compound returned an Emax of 99.7%. Besides, the pIC50 in data set [11], in data set [16], in [17], in [18] and in data set [19] was less than 4.52 in each case.
